The values below come from paper PMC10819767, “An ADAM10 Exosite Inhibitor Is Efficacious in an In Vivo Collagen-Induced Arthritis Model” (Pharmaceuticals, 2024).

Data set [1] concerns collagen-induced arthritis (CIA) model. Briefly: CIA mouse model: clinical arthritis score and paw swelling. The following applies: for disease score: scale 0–4. The class given is in vivo, C57 BL/6 mice. As to the method:
In vivo efficacy in the CIA mouse model. All animal studies were conducted in accordance with NSU IACUC guidelines. Study protocol #2021.04.DM5 was approved by NSU IACUC before the commencement of the studies. CID 3117694 and indomethacin were ground with a small amount of the dispersing agent (0.5% HPMC (3 cP)–0.5% Tween 80) using a mortar and a pestle and mixed repeatedly to form a smooth paste. The paste was moved to a graduated cylinder and filled up to the required volume with the dispersing agent to form a suspension, as described elsewhere. The test compound (10, 30, and 50 mg/kg) and indomethacin (2.5 mg/kg) were administered with a mouse gavage needle (gauge no: 18, BD, catalog number: 653902) through the oral route as a suspension with a 5 mL/kg dose volume (from day 0 to day 28). In this study, 6–8-week-old C57 BL/6 mice from Charles River (male and female) were used. Animals were randomly assigned to one of the following six groups: (1) normal (non-RA control), (2) RA control untreated, (3) RA control treated with 2.5 mg/kg/day indomethacin, and 3 test groups (CID 3117694 (10 mg/kg/day, 30 mg/kg/day, and 50 mg/kg/day)) to provide an estimate for the lead compound’s efficacy range. Each group had three males and three females assigned to the control for gender-based differences. Arthritis was induced in the right paws of the mice under anaesthesia. The left paw of the mice was used as a control. A total of 10 µL collagen from bovine (type II collagen) nasal septum emulsion (2 mg/mL) was injected into the right knee joint with a glass Hamilton syringe and 25 G needles for intraarticular (i.a.) injection, followed by a total of 100 µL Complete Freund’s adjuvant (CFA) emulsion was injected at the back of mice using a syringe with 25 G needles subcutaneously (s.c.). On day 14 after the first injection, the mice were injected, i.e., with 10 µL of collagen from the bovine nasal septum ([…]) and s.c. with a 100 µL CFA emulsion for a boost injection. Arthritis progression was monitored using a clinical arthritis scoring system (0–4), and paw swelling was measured with the help of a plethysmograph on days 0, 14, 21, and 28 after the induction of arthritis. […] After the administration of a primary dose of collagen from the bovine nasal septum, CFA scoring was assessed. Measurements were taken on days 0, 14, 21, and 28 after the induction of arthritis in induced paws (right paw) and non-arthritis paws (left paw). CID 3117694 (10 mg/kg/day, 30 mg/kg/day, and 50 mg/kg/day) and pharmacological control (indomethacin 2.5 mg/kg/day) treatment were given every day for 28 days beginning from day 1 via oral gavage in hydroxy-propyl-methyl cellulose (HPMC) suspension.

Another data set concerns TNFα. Briefly: RA serum marker ELISA, TNFα, CIA mice. The class given is in vivo, C57 BL/6 mice. As to the method: (§1) The sample size for therapeutic evaluation was calculated using power analysis based on experimental data from similar studies. In a two-sided test and setting the α value at 0.05 and desired power at 0.95, the sample size turned out to be 5 per group. We also expected deaths during the experiments; therefore, we used the formula Nt = N/1-q, where Nt is the number of mice initially used, N is the number required at the end of the study, and q is the proportion of attrition, which is generally 10%. Thus, at the end of the study period, we expected to have data from at least 6 mice per group, which is enough to attain statistical significance if it exists. Data were analyzed using a one-way ANOVA followed by Dunnett’s test compared with the vehicle control. At the end of the study, the mice were anesthetized and sacrificed using CO2 euthanasia. The hind paws of the mice were subjected to a histopathological examination, and the serum was analyzed for CRP, TNF-α, IL-6, and IL-10, as described in the below sections.
(§2) RA serum marker analysis. Blood was collected from the tail vein, and 100 µL was used for the assays. All assays were conducted using the manufacturer’s instructions for the respective assay kits. The following assay kits were purchased: Mouse TNF-α GENLISA™ ELISA (Krishgen BioSystems cat#KB2145, Mumbai, India), Mouse IL-10 GENLISA™ ELISA (Krishgen BioSystems cat#KB2072), Mouse hsC-Reactive Protein, hs-CRP GENLISA™ ELISA (Krishgen BioSystems cat#KLM0318), Mouse IL-6 GENLISA™ ELISA (Krishgen BioSystems cat#KB2068).
For orientation: An ELISA detects its analyte on a solid surface through an enzyme-linked reagent.

For the next data set, the system named is IL-6. Put plainly: RA serum marker ELISA, IL-6, CIA mice. The class given is in vivo, C57 BL/6 mice. As to the method: as §1, §2
In a further data set the test system is cardiac ion channel hERG. More on the design: method as in PubChem AID 1511. The note with it: ref PubChem AID 1511, cited from earlier work.
Another data set deals with DNA polymerase β. Also noted: method as in PubChem AID 485314. The following applies: ref PubChem AID 485314; cited from earlier work.
The subject of another data set is adrenergic (ADRB2). More on the design: method as in PMID 34817776. The note with it: cited from earlier work.
A further data set deals with OPRK1. More on the design: method as in PMID 34817776. The note with it: cited from earlier work.
Another data set concerns T-cell receptors. More on the design: method as in PubChem bioassay 504894. The following applies: ref PubChem bioassay 504894; cited from earlier work.
The mark [2] stands for this setting: CID 3117694 50 mg/kg/day, indomethacin 2.5 mg/kg.
Where [3] appears, read: all tested doses (10, 30, 50 mg/kg), vs vehicle control.

A word on the IC50: it is the concentration that gives 50% inhibition.

SMILES strings stand for the structures.

As for `COc1cccc(C(=O)NNC(=O)C(=O)Nc2ccc(C)c(Cl)c2)c1` [CID 3117694], the “paw swelling vs normal control (in words)” value in data set [1] (50 mg/kg/day) was “decreased the swelling to the level of the normal control”. For the same molecule, the disease score is 4 in data set [1] (day 21, 10 mg/kg oral); “three” in data set [1] (day 21, 30 mg/kg oral); 2 in data set [1] (day 21, 50 mg/kg oral); 2 in data set [1] (day 28, 10 mg/kg oral); 2 in data set [1] (day 28, 30 mg/kg oral); 1 in data set [1] (day 28, 50 mg/kg oral). The “TNFα blood level vs healthy control” value with TNFα (setting [2]) is reported as “decreased the markers to the level of the healthy control”. Moreover, the “concentration of TNFα in the blood of arthritic mice” value in the data set on TNFα (setting [3]) is recorded as “lowers”. Moreover, in the data set on IL-6 (setting [2]), the “IL-6 blood level vs healthy control” value is “decreased the markers to the level of the healthy control”. For the same molecule, the “concentration of IL-6 in the blood of arthritic mice” value in the data set with IL-6 (setting [3]) was “lowers”. The “effect on hERG with pro-arrhythmic agents (in words)” value with cardiac ion channel hERG (no EC50 value reported) is given as “cardioprotective”. Besides, the “hERG inhibition (in words)” value in the data set with cardiac ion channel hERG is reported as “not an hERG inhibitor”. Besides, the 50% inhibitory concentration (IC50) on DNA polymerase β is 79 µM. The “activity against ADRB2” value in the data set with adrenergic (ADRB2) is “inactive”. The “activity against OPRK1” value in the data set with OPRK1 is “inactive”. Besides, the “activity in assay for activators of T-cell receptors” value in the data set with T-cell receptors is on record as “inactivity”.
